Data set [1] can be described thus: Chemical stability testing: incubation in HCl, NaOH, H2O2 or NH4HCO3 at 40° C., remaining purity by RP-HPLC. Type of data set: physicochemical. The note with it: 40° C.; for Purity H2O2 0.5% 3 days / Purity HCl 0.1M 12 days / Purity NH4HCO3 0.1M 6 days: 2 mg/ml, relative to the purity at T=0; for Purity H2O2 0.5% 3 days / Purity HCl 0.1M 12 days: RP-HPLC; for Purity NH4HCO3 0.1M 6 days: pH 8, RP-HPLC; for Stability during acid hydrolysis (in words): 0.1 M HCl, 12 days. On the procedure:
The GLP-2 analogues were dissolved in purified water and subsequently diluted in solutions containing HCl, NaOH, H2O2 or NH4HCO3. The solutions were incubated at 40° C. to produce hydrolysis, deamidation and oxidation products. The samples were analyzed by RP-HPLC and the percentage of remaining intact compound was determined as a measure for the relative stability. The major degradation products were tentatively identified by LC-MS.
The GLP-2 analogues tested and the reference Gly^2-GLP-2, ZP1559 (SEQ ID NO:54), were dissolved in water and subsequently diluted into solutions containing HCl, NaOH, H2O2 or NH4HCO3. The samples were incubated at 40° C. to generate hydrolysis, deamidation and oxidation products, respectively. The compounds were analysed by RP-HPLC for purity of the original main peak and by LC-MS for confirmation of the identity by mass of the main peak and major degradation products.
The GLP-2 analogues were first dissolved in MQW to a concentration of 4 mg/ml and then further diluted in the stress solutions at a 1:1 ratio (e.g. 125 μl plus 125 μl). The final concentrations were 2 mg/ml of the GLP-2 analogues for stress conditions with 0.1 M HCl, 0.01M NaOH, 0.1 M NH4HCO3 and 0.5% H2O2, respectively.
The solutions were incubated at 40° C. in the dark and then diluted in Eluent A to a concentration of 0.5 mg/ml (addition of 750 μl) prior to analyses by RP-HPLC and by LC-MS.
The RP-HPLC analyses were performed on an Agilent Series 1100 HPLC system under control of the ChemStation (Revision A.08.03 [847]) software from Agilent Technologies, Inc. The raw data and the results of the peak integration were deposited on the ChemStore C/S server by the use of Agilent Technologies Revision B01.03 software.
The results are shown in Table 9 as the compound purity measured by RP-HPLC after incubation under stress conditions. This purity is a measure for the remaining intact compound after incubation in stress solutions, relative to the purity measured a T=0.

Data set [2] deals with male C57BL mice. Description: Screening for intestinal growth effects (small intestine and colon mass relative to body weight, small intestine-colon sensitivity index). It counts as in vivo. The note with it: for Small intestine mass relative to [Gly2]GLP-2 / Preferential growth of small intestine versus colon (small intestine-colon sensitivity): 30 nmol/kg s.c. twice daily, ten days; for Small intestine mass relative to [Gly2]GLP-2: equimolar [Gly2]GLP-2; for Preferential growth of small intestine versus colon (small intestine-colon sensitivity): relative to [Gly2]GLP-2; for colon mass relative to body weight, % [Gly2]GLP-2 / small intestine-colon sensitivity index, (SI/Colon)X/(SI/Colon)[Gly2]GLP-2 %: male C57BL mice, 30 nmol/kg s.c. twice daily for ten days; for small intestine-colon sensitivity index, (SI/Colon)X/(SI/Colon)[Gly2]GLP-2 %: third value column. On the procedure:
The ability of the present compounds to stimulate intestinal growth was determined in male C57BL mice. Individual groups (n=6) of mice were given 30 nmol/kg of each compound, s.c, twice daily for ten consecutive days. For comparison purposes other groups of animals were given either an equimolar dose of [Gly2]GLP-2 (SEQ ID NO:54) or vehicle (phosphate buffered saline, pH 7.4) in the same dosing regimen. Twenty-four hours after the last dose of compound had been given the mice were sacrificed and the small intestine (from the pylorus to the cecum) and the colon (intestine distal to cecum) was emptied and weighed. To correct for slight difference in body weight (BW), the organ mass of the small intestine (SI) and colon were expressed relative to BW. The non-selective reference compound [Gly2]GLP-2 (SEQ ID NO:54) has been reported to stimulate gastrointestinal growth in both esophagus, stomach, small intestine and colon and to evaluate differences in growth pattern induced by compounds, the small intestine-colon sensitivity index of compound X was calculated as:
(SI/Colon)X/(SI/Colon)[Gly2]GLP-2%
Compounds with a small intestine-colon sensitivity greater than or equal to 1.05 were considered relatively selective for the small intestine (Table 15).
Compounds with a small intestine-colon sensitivity smaller than or equal to 0.95 were considered relatively selective for the colon (Table 15).

Data set [3] relates to male C57BL mice. Briefly: Dose-response effect on intestinal growth (SI mass, SI-Colon Sensitivity Index, colon and stomach mass). It counts as in vivo. The note with it: 5-405 nmol/kg s.c. b.i.d. for three days. On the procedure: Values are means±SEM. *: P<0.05 relative to the equimolar dose of [Gly2]GLP-2 (SEQ ID NO:54).
FIG. 2 is a set of graphs showing full dose-response data of four small intestine selective compounds (compound nos. 1846 (SEQ ID NO:34), 1855 (SEQ ID NO:43), 1848 (SEQ ID NO:36), 1858 (SEQ ID NO:46)) on the Small Intestine (SI)-to-Colon Sensitivity Index mice relative to the non-selective reference compound [Gly2]GLP-2 (SEQ ID NO:54). Compounds were administered by subcutaneous injection b.i.d. for three days in C57BL mice at the following doses: 0 (vehicle), 5, 15, 45, 135, 405 nmol/kg (n=6/dose group). Responses at each dose level were compared with responses obtained at the same dose level in pair-treated mice treated with the non-selective reference compound [Gly2]GLP-2 (SEQ ID NO:54). The SI-Colon Sensitivity Index was calculated as SI-mass relative to colon mass and the Sensitivity Index at each dose level was normalized to the response observed with the non-selective reference compound [Gly2]GLP-2 (SEQ ID NO:54). […] Values are means±SEM. *: P<0.05 relative to the equimolar dose of [Gly2]GLP-2.
FIG. 4 is a set of graphs showing full dose-response data of three small intestine selective compounds (compound nos. 1857 (SEQ ID NO:45), 1820 (SEQ ID NO:10), and 1849 (SEQ ID NO:37)) on the Small Intestine (SI)-to-Colon Sensitivity Index mice relative to the non-selective reference compound [Gly2]GLP-2 (SEQ ID NO:54). Compounds were administered by subcutaneous injection b.i.d. for three days in C57BL mice at the following doses: 0 (vehicle), 5, 15, 45, 135, 405 nmol/kg (n=6/dose group). Responses at each dose level were compared with responses obtained at the same dose level in pair-treated mice treated with the non-selective reference compound [Gly2]GLP-2 (SEQ ID NO:54). The SI-Colon Sensitivity Index was calculated as SI-mass relative to colon mass and the Sensitivity Index at each dose level was normalized to the response observed with the non-selective reference compound [Gly2]GLP-2 (SEQ ID NO:54). […] Values are means±SEM. *: P<0.05 relative to the equimolar dose of [Gly2]GLP-2 (SEQ ID NO:54).
Compounds were administered by subcutaneous injection b.i.d. for three days in C57BL mice at the following doses: 0 (vehicle), 5, 15, 45, 135, 405 nmol/kg (n=6/dose group). […] Values are means±SEM. *: P<0.05 relative to the vehicle.
The dose-response effect of 1820 (SEQ ID NO:10), 1855 (SEQ ID NO:43), ZP1846 (SEQ ID NO:34), 1858 (SEQ ID NO:46), 1849 (SEQ ID NO:37), 1848 (SEQ ID NO:36), and 1857 (SEQ ID NO:45) on small intestinal mass was determined in male C57BL mice. Individual groups (n=6) of mice were given 5, 15, 45, 135 or 405 nmol/kg of each compound, s.c, twice daily for three consecutive days. For comparison purposes other groups of animals were given either equimolar doses of [Gly2]GLP-2 (SEQ ID NO:54) or vehicle (phosphate buffered saline, pH 7.4) in the same dosing regimen. Twenty-four hours after the last dose of compound had been given the mice were sacrificed and the small intestine (from the pylorus to the cecum emptied and weighed to determine the effect on small intestinal mass.

Entries after “also recorded” stand apart in the source; their conditions may differ. No end group written: not given here.

For “[Gly2, Glu3, Ser8, Leu10, Ala11,16,24,28]hGLP-2(1-33)-(Lys)6-NH2 (HGEGSFSSELATILDALAARDFIAWLIATKITDKKKKKK-NH2) [Compound 1849]”, in data set [1], the “Purity H2O2 0.5% 3 days” value came to 78%, the “Purity HCl 0.1M 12 days” value amounted to 64% and the “Purity NH4HCO3 0.1M 6 days” value was 86%. Further, in the data set with male C57BL mice [2], the “Small intestine mass relative to [Gly2]GLP-2” value is “increased small intestine mass relative to [Gly2]GLP-2”; the “Preferential growth of small intestine versus colon (small intestine-colon sensitivity)” value is “supplementary increase in the weight of the small intestine without significant effecting the weight of the colon; also recorded: preferentially stimulating epithelial growth in the small intestine”; the “colon mass relative to body weight, % [Gly2]GLP-2” value stood at 95 % [Gly2]GLP-2; the “small intestine-colon sensitivity index, (SI/Colon)X/(SI/Colon)[Gly2]GLP-2 %” value came to 115 % [Gly2]GLP-2. In the data set with male C57BL mice [3], the “SI-Colon Sensitivity Index (SI mass relative to colon mass) relative to [Gly2]GLP-2” value is “increased maximal small intestinal sensitivity relative to [Gly2]GLP-2; also recorded: increased selectivity for causing growth of the small intestine relative to the colon” and the “Small intestinal mass (SI-BW ratio), maximal response relative to [Gly2]GLP-2” value was “maximal responses that were significantly greater than [Gly2]GLP-2”.
As to “[Gly2, Glu3, Ser8, Leu10, Ala11,16,24,28]hGLP-2(1-33)-NH2 (HGEGSFSSELATILDALAARDFIAWLIATKITD-NH2) [Compound 1858]”, in data set [1], the “Stability during acid hydrolysis (in words)” value is “tendency of slightly higher stability”, the “Purity H2O2 0.5% 3 days” value stood at 60%, the “Purity HCl 0.1M 12 days” value was 88% and the “Purity NH4HCO3 0.1M 6 days” value turned out to be 91%. Besides, in the data set on male C57BL mice [2], the “Small intestine mass relative to [Gly2]GLP-2” value was “increased small intestine mass relative to [Gly2]GLP-2”; the “Preferential growth of small intestine versus colon (small intestine-colon sensitivity)” value was “supplementary increase in the weight of the small intestine without significant effecting the weight of the colon; also recorded: preferentially stimulating epithelial growth in the small intestine”; the “colon mass relative to body weight, % [Gly2]GLP-2” value was 96 % [Gly2]GLP-2; the “small intestine-colon sensitivity index, (SI/Colon)X/(SI/Colon)[Gly2]GLP-2 %” value was 108 % [Gly2]GLP-2. In addition, the “Small intestinal mass (SI-BW ratio), maximal response relative to [Gly2]GLP-2” value with male C57BL mice [3] was “maximal responses that were significant greater than [Gly2]GLP-2”.
Consider “[Gly2, Thr7, Ser8, Leu10, Ala11,24]hGLP-2(1-30)-K6-NH2 [Compound 1820]”, for which, in data set [1], the “Stability during acid hydrolysis (in words)” value is reported as “less stable than the remaining six candidates due to acid hydrolysis”, the “Purity H2O2 0.5% 3 days” value is listed as 62%, the “Purity HCl 0.1M 12 days” value stood at 45% and the “Purity NH4HCO3 0.1M 6 days” value is on record as 85%. Further, in the data set with male C57BL mice [2], the “Small intestine mass relative to [Gly2]GLP-2” value is “increased small intestine mass relative to [Gly2]GLP-2” and the “Preferential growth of small intestine versus colon (small intestine-colon sensitivity)” value is on record as “supplementary increase in the weight of the small intestine without significant effecting the weight of the colon; also recorded: preferentially stimulating epithelial growth in the small intestine”. In the data set with male C57BL mice [3], the “SI-Colon Sensitivity Index (SI mass relative to colon mass) relative to [Gly2]GLP-2” value was “increased maximal small intestinal sensitivity relative to [Gly2]GLP-2” and the “Small intestinal mass (SI-BW ratio), maximal response relative to [Gly2]GLP-2” value was “maximal responses that were significantly greater than [Gly2]GLP-2”.
On to “[Gly2, Thr7, Ser8, Leu10, Ala11,24]hGLP-2(1-30)-NH2 (HGDGSFTSELATILDNLAARDFIAWLIQTK-NH2) [Compound 1834]”, for which, in data set [1], the “Stability during acid hydrolysis (in words)” value is listed as “less stable than the remaining six candidates due to acid hydrolysis”, the “Purity H2O2 0.5% 3 days” value is 53%, the “Purity HCl 0.1M 12 days” value was determined as 38% and the “Purity NH4HCO3 0.1M 6 days” value was found to be 91%. For the same substance, in the data set with male C57BL mice [2], the “Preferential growth of small intestine versus colon (small intestine-colon sensitivity)” value was “without preferential growth in small intestine or colon”.
On to “[Leu10, Ala11, Ala24]hGLP-2 (1-33)-K6-NH2 [Compound 1839]”, for which, in the data set with male C57BL mice [2], the “Preferential growth of small intestine versus colon (small intestine-colon sensitivity)” value was “preferentially stimulating epithelial growth in the colon”; the “colon mass relative to body weight, % [Gly2]GLP-2” value was found to be 133 % [Gly2]GLP-2; the “small intestine-colon sensitivity index, (SI/Colon)X/(SI/Colon)[Gly2]GLP-2 %” value was 84 % [Gly2]GLP-2.
For “[Leu10, Ala11, Ala24]hGLP-2 (1-33)-NH2 [Compound 1840]”, in that order: “preferentially stimulating epithelial growth in the colon”, 131 % [Gly2]GLP-2 and 86 % [Gly2]GLP-2.
In the same order, the values of “[Thr7, Leu10, Ala11, Ala24]hGLP-2 (1-30)-NH2 [Compound 1843]” are “preferentially stimulating epithelial growth in the colon”, 130 % [Gly2]GLP-2 and 85 % [Gly2]GLP-2.
Regarding “[Thr7, Ser8, Leu10, Lys11, Ala24]hGLP-2 (1-30)-NH2 [Compound 1842]”, the “Preferential growth of small intestine versus colon (small intestine-colon sensitivity)” value with male C57BL mice [2] is given as “without preferential growth in small intestine or colon”.

For the origin of these results see patent publication US9580487B2, “Method of treating stomach or bowel-related disorders by administering glucagon-like-peptide-2 (GLP-2) analogues” (Zealand Pharma A/S, priority 2005, dated 2017).
